Results taken from patent US10294202B2, “Pyrrolidinones as herbicides” (FMC Corporation, priority 2013, dated 2019).

Tests used:
barnyardgrass = assay: Test A pre-/postemergence herbicide test; assay type: in vivo, Echinochloa crus-galli; details: for Barnyardgrass plant response rating: Preemergence, visual rating on 0 to 100 scale (0 no effect, 100 complete control)
Procedure, shortened: (§1)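 Visual 0–100 ratings (100 = complete control) made about 10 days after treatment, greenhouse-held plants compared with untreated controls. Treatments: postemergence sprays on one- to two-leaf plants (2–10 cm tall) and preemergence directed soil sprays after planting in loam–sand, chemicals formulated in non-phytotoxic solvent containing surfactant.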

giant foxtail = assay: Test A pre-/postemergence herbicide test; assay type: in vivo, Setaria faberii; details: for Foxtail, Giant plant response rating: Preemergence, visual rating on 0 to 100 scale (0 no effect, 100 complete control)
Procedure, shortened: as §1

corn = assay: Test A pre-/postemergence herbicide test; assay type: in vivo, Zea mays; details: for Corn plant response rating: Preemergence, visual rating on 0 to 100 scale (0 no effect, 100 complete control)
Procedure, shortened: as §1

rice = assay: Test B flooded paddy test; assay type: in vivo, Oryza sativa; details: 250 g ai/ha, Flood; scale of 0 to 100 where 0 is no effect and 100 is complete control
Procedure, shortened: (§2)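 In-water application to pots flooded 3 cm deep, plants at 2-leaf stage. Held in greenhouse 13–15 days at constant flood depth. Scored 0–100 by eye against controls.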

sedge, umbrella = assay: Test B flooded paddy test; assay type: in vivo, Cyperus difformis; details: 250 g ai/ha, Flood; scale of 0 to 100 where 0 is no effect and 100 is complete control
Procedure, shortened: as §2

wheat (winter wheat) = assay: Test C pre-/postemergence herbicide test; assay type: in vivo, Triticum aestivum
Procedure, shortened: (§3)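 Greenhouse plants scored visually against untreated controls 13–15 days after treatment, 0 = no effect, 100 = complete control. Test chemicals in a non-phytotoxic solvent with surfactant were applied either to soil (loam/sand) at planting or to foliage of 1- to 4-leaf plants, 2–18 cm tall.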

foxtail, giant = assay: Test C pre-/postemergence herbicide test; assay type: in vivo, Setaria faberii
Procedure, shortened: as §3

lambsquarters = assay: Test C pre-/postemergence herbicide test; assay type: in vivo, Chenopodium album
Procedure, shortened: as §3

morningglory = assay: Test C pre-/postemergence herbicide test; assay type: in vivo, Ipomoea coccinea
Procedure, shortened: as §3

nutsedge, yellow = assay: Test C pre-/postemergence herbicide test; assay type: in vivo, Cyperus esculentus
Procedure, shortened: as §3

velvetleaf = assay: Test C pre-/postemergence herbicide test; assay type: in vivo, Abutilon theophrasti
Procedure, shortened: as §3

[1] = Postemergence, 125 g ai/ha, 0 to 100 scale, 0 no effect, 100 complete control
[2] = Postemergence, 500 g ai/ha, 0 to 100 scale (0 no effect, 100 complete control)
[3] = preemergence, 500 g ai/ha, 0 to 100 scale (0 no effect, 100 complete control)
[4] = preemergence, 500 g ai/ha, 0 to 100 scale
[5] = Postemergence, 16 g ai/ha, scale 0 to 100 (0 no effect, 100 complete control)
[6] = Postemergence, 31 g ai/ha, scale 0 (no effect) to 100 (complete control)
[7] = Postemergence, 62 g ai/ha, scale 0 to 100 (0 no effect, 100 complete control)
[8] = Postemergence, 125 g ai/ha, scale 0 to 100 (0 no effect, 100 complete control)
[9] = Preemergence, 62 g ai/ha, scale 0 to 100
[10] = Preemergence, 125 g ai/ha, scale 0 to 100 (0 no effect, 100 complete control)
[11] = Preemergence, 16 g ai/ha, scale 0 to 100
[12] = Postemergence, 250 g ai/ha, scale 0 to 100 (0 no effect, 100 complete control)

O=C1NCC(c2cc(F)c(F)c(F)c2)C1C(=O)Nc1cccc(F)c1F (stereo not drawn) [Compound 48]
35: Plant response rating, Velvetleaf (velvetleaf; [8])
20: Plant response rating, Corn (corn; [4]) | Plant response rating, Rice (rice) | Plant response rating, Wheat (wheat (winter wheat); [9]) | Plant response rating, Foxtail, Giant (foxtail, giant; [7]) | Plant response rating, Nutsedge, Yellow (nutsedge, yellow; [10])
0: Plant response rating, Corn (corn; [1]) | Corn plant response rating (corn; 125 g ai/ha) | Plant response rating, Wheat (wheat (winter wheat); [5]) | Plant response rating, Wheat (wheat (winter wheat); [6]) | Plant response rating, Wheat (wheat (winter wheat); [7]) | Plant response rating, Wheat (wheat (winter wheat); [11]) | Plant response rating, Foxtail, Giant (foxtail, giant; [5]) | Plant response rating, Lambsquarters (lambsquarters; [11]) | Plant response rating, Morningglory (morningglory; [9]) | Plant response rating, Morningglory (morningglory; [11]) | Plant response rating, Nutsedge, Yellow (nutsedge, yellow; [5]) | Plant response rating, Nutsedge, Yellow (nutsedge, yellow; [6]) | Plant response rating, Nutsedge, Yellow (nutsedge, yellow; [7]) | Plant response rating, Nutsedge, Yellow (nutsedge, yellow; [8]) | Plant response rating, Nutsedge, Yellow (nutsedge, yellow; [9]) | Plant response rating, Nutsedge, Yellow (nutsedge, yellow; [11]) | Plant response rating, Velvetleaf (velvetleaf; [5]) | Plant response rating, Velvetleaf (velvetleaf; [6]) | Plant response rating, Velvetleaf (velvetleaf; [9]) | Plant response rating, Velvetleaf (velvetleaf; [10]) | Plant response rating, Velvetleaf (velvetleaf; [11])
45: Plant response rating, Wheat (wheat (winter wheat); [10])
15: Plant response rating, Morningglory (morningglory; [10]) | Plant response rating, Velvetleaf (velvetleaf; [7])
95: Plant response rating, Foxtail, Giant (foxtail, giant; [10])
85: Plant response rating, Foxtail, Giant (foxtail, giant; [9])
10: Plant response rating, Lambsquarters (lambsquarters; [6]) | Plant response rating, Lambsquarters (lambsquarters; [8]) | Plant response rating, Morningglory (morningglory; [5]) | Plant response rating, Morningglory (morningglory; [6]) | Plant response rating, Morningglory (morningglory; [7]) | Plant response rating, Morningglory (morningglory; [8])
40: Plant response rating, Foxtail, Giant (foxtail, giant; [8]) | Plant response rating, Foxtail, Giant (foxtail, giant; [11])
90: Plant response rating, Barnyardgrass (barnyardgrass; [2]) | Plant response rating, Barnyardgrass (barnyardgrass; [3]) | Plant response rating, Foxtail, Giant (giant foxtail; [4])
50: Plant response rating, Corn (corn; [2])
80: Plant response rating, Barnyardgrass (barnyardgrass; [1]) | Barnyardgrass plant response rating (barnyardgrass; 125 g ai/ha) | Plant response rating, Foxtail, Giant (giant foxtail; [1]) | Plant response rating, Foxtail, Giant (giant foxtail; [2]) | Foxtail, Giant plant response rating (giant foxtail; 125 g ai/ha) | Foxtail, Giant plant response rating (foxtail, giant; Preemergence, 31 g ai/ha, scale 0 to 100 (0 no effect, 100 complete control))
5: Plant response rating, Wheat (wheat (winter wheat); [8]) | Plant response rating, Foxtail, Giant (foxtail, giant; [6])
60: Plant response rating, Sedge, Umbrella (sedge, umbrella)
65: Plant response rating, Lambsquarters (lambsquarters; [9]) | Plant response rating, Lambsquarters (lambsquarters; [10])

O=C1NCC(c2cc(F)c(F)cc2F)C1C(=O)Nc1cccc(F)c1F (stereo not drawn) [Compound 50]
25: Plant response rating, Velvetleaf (velvetleaf; [8])
90: Plant response rating, Barnyardgrass (barnyardgrass; [3]) | Foxtail, Giant plant response rating (giant foxtail; 125 g ai/ha) | Plant response rating, Foxtail, Giant (giant foxtail; [4])
0: Plant response rating, Corn (corn; [1]) | Plant response rating, Corn (corn; [2]) | Corn plant response rating (corn; 125 g ai/ha) | Plant response rating, Corn (corn; [4]) | Plant response rating, Rice (rice) | Plant response rating, Wheat (wheat (winter wheat); [6]) | Plant response rating, Wheat (wheat (winter wheat); [7]) | Plant response rating, Wheat (wheat (winter wheat); [8]) | Plant response rating, Wheat (wheat (winter wheat); [12]) | Plant response rating, Foxtail, Giant (foxtail, giant; [6]) | Plant response rating, Morningglory (morningglory; [6]) | Plant response rating, Morningglory (morningglory; [7]) | Plant response rating, Nutsedge, Yellow (nutsedge, yellow; [6]) | Plant response rating, Nutsedge, Yellow (nutsedge, yellow; [7]) | Plant response rating, Nutsedge, Yellow (nutsedge, yellow; [8]) | Plant response rating, Velvetleaf (velvetleaf; [6])
55: Plant response rating, Sedge, Umbrella (sedge, umbrella)
5: Plant response rating, Foxtail, Giant (foxtail, giant; [7]) | Plant response rating, Foxtail, Giant (foxtail, giant; [8]) | Plant response rating, Lambsquarters (lambsquarters; [6]) | Plant response rating, Nutsedge, Yellow (nutsedge, yellow; [12])
10: Plant response rating, Foxtail, Giant (foxtail, giant; [12]) | Plant response rating, Lambsquarters (lambsquarters; [7]) | Plant response rating, Lambsquarters (lambsquarters; [8]) | Plant response rating, Morningglory (morningglory; [8]) | Plant response rating, Morningglory (morningglory; [12])
15: Plant response rating, Lambsquarters (lambsquarters; [12]) | Plant response rating, Velvetleaf (velvetleaf; [7])
80: Plant response rating, Barnyardgrass (barnyardgrass; [1]) | Plant response rating, Barnyardgrass (barnyardgrass; [2]) | Plant response rating, Foxtail, Giant (giant foxtail; [1]) | Plant response rating, Foxtail, Giant (giant foxtail; [2])
45: Plant response rating, Velvetleaf (velvetleaf; [12])
30: Barnyardgrass plant response rating (barnyardgrass; 125 g ai/ha)
